Experimental data from ChEMBL document CHEMBL1201862, “PubChem BioAssay data set” (2004).
The source made the active and inactive calls. No stated cut-off is given here; in the data, actives have a measured IC50 and inactives only a lower limit.

These molecules were tested against Envelope glycoprotein gp160 (Human immunodeficiency virus 1, UniProt Q6QLK5) (assay: inhibitors of HIV fusion peptide binding, primary screen, biochemical, uHTS, fluorescence dequenching (AID 1986)).
Envelope glycoprotein gp160, sequence (Q6QLK5 whole entry, the tested form may be a part): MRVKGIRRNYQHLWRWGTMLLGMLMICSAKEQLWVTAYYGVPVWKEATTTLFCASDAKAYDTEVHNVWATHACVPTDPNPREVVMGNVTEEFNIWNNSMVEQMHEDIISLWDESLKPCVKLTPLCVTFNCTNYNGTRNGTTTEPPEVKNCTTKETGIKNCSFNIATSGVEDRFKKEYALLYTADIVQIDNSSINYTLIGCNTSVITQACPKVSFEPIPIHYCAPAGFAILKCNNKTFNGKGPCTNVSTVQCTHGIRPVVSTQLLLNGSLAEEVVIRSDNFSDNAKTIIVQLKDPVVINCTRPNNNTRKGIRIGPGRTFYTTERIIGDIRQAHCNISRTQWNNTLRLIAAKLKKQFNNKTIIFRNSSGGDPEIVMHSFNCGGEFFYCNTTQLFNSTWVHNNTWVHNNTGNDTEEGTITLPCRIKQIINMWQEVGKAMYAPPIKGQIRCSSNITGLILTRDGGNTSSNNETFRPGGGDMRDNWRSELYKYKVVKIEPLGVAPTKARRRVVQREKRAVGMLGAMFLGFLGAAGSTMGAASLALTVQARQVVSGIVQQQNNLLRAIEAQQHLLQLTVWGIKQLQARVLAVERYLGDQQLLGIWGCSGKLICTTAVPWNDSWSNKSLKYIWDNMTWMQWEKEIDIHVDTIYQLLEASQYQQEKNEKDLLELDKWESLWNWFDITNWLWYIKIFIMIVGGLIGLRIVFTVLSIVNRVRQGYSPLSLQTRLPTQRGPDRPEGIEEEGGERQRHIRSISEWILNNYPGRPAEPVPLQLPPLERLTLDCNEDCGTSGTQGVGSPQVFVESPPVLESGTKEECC
In the case of `CC(C)(C)c1ccc(OCC(=O)NNC(=S)NC(=O)c2ccccc2[N+](=O)[O-])c(Br)c1`, the IC50 is reported as 28.7 µM (active). In the case of `CCCCCC(=O)Cc1cc(O)cc2c1C(=O)Oc1cc(O)c(C(=O)O)c(CCCCC)c1O2` [PHYSODIC ACID], the IC50 is reported as 4.1 µM (active). For `NS(=O)(=O)c1cc(C(=O)NC2CCSc3ccccc32)ccc1Cl` (centres undefined), the IC50 was 8.22 µM (active). With `O=C(O)CN1C(=O)/C(=C\c2cc(Br)ccc2OCc2ccc(Cl)cc2Cl)SC1=S` the IC50 was 13.1 µM (active).
